From US12568972B2, “Pyridazinol compounds and derivatives, preparation methods, herbicidal compositions and applications thereof” (Qingdao Kingagroot Chemical Compound Co., Ltd., priority 2018, dated 2026)

Legend:
Test in all cases: Post-emergence test, weed control effect
Type in all cases: in vivo
Settings in all cases: after 3 weeks
Amaranthus retroflexus = system: Amaranthus retroflexus
Method in brief: (§1)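 Seeds are sown in soil pots and raised in the greenhouse until the 2-3 leaf stage. Plants are then sprayed with compound dissolved in acetone with Tween-80, diluted in water and supplemented with 80% vegetable oil methyl ester synergist at 1500 g/ha, and fresh weight inhibition is rated 0-10 three weeks later.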

Veronica polita = system: Veronica polita
Method in brief: as §1

Chenopodiaceae = system: Chenopodiaceae
Method in brief: as §1

Rorippa indica = system: Rorippa indica
Method in brief: as §1

CC(C)COC(=O)Oc1cc(C(F)(F)F)nnc1-c1cccc(C(F)(F)F)c1 [Compound 1-30]
10: weed control effect, Amaranthus retroflexus (activity level) (Amaranthus retroflexus; Dose 3000 g/ha) | weed control effect, Veronica polita (activity level) (Veronica polita; Dose 3000 g/ha) | weed control effect, Chenopodiaceae (activity level) (Chenopodiaceae; Dose 3000 g/ha) | weed control effect, Rorippa indica (activity level) (Rorippa indica; Dose 3000 g/ha)

O=C(Oc1cc(C(F)(F)F)nnc1-c1ccc(F)c(F)c1)c1ccc(Cl)nc1 [Compound 1-110]
10: weed control effect, Amaranthus retroflexus (activity level) (Amaranthus retroflexus; Dose 3000 g/ha) | weed control effect, Veronica polita (activity level) (Veronica polita; Dose 3000 g/ha) | weed control effect, Chenopodiaceae (activity level) (Chenopodiaceae; Dose 3000 g/ha) | weed control effect, Rorippa indica (activity level) (Rorippa indica; Dose 3000 g/ha)

CN(C)c1ccc(-c2nnc(C(F)(F)F)cc2O)cc1 [Compound 97]
10: weed control effect (activity level), Amaranthus retroflexus (Amaranthus retroflexus; dose 1000 g/ha) | weed control effect (activity level), Veronica polita (Veronica polita; dose 1000 g/ha) | weed control effect (activity level), Chenopodiaceae (Chenopodiaceae; dose 1000 g/ha) | weed control effect (activity level), Rorippa indica (Rorippa indica; dose 1000 g/ha)

CCc1cc(-c2nnc(C(F)(F)F)cc2O)c(F)cc1[N+](=O)[O-] [Compound 179]
10: weed control effect (activity level), Amaranthus retroflexus (Amaranthus retroflexus; dose 2000 g/ha) | weed control effect (activity level), Veronica polita (Veronica polita; dose 2000 g/ha) | weed control effect (activity level), Chenopodiaceae (Chenopodiaceae; dose 2000 g/ha) | weed control effect (activity level), Rorippa indica (Rorippa indica; dose 2000 g/ha)

Oc1cc(C(F)(F)F)nnc1-c1c(F)ccc(F)c1F [Compound 54]
10: weed control effect (activity level), Amaranthus retroflexus (Amaranthus retroflexus; dose 1000 g/ha) | weed control effect (activity level), Veronica polita (Veronica polita; dose 1000 g/ha) | weed control effect (activity level), Chenopodiaceae (Chenopodiaceae; dose 1000 g/ha) | weed control effect (activity level), Rorippa indica (Rorippa indica; dose 1000 g/ha)

COCC(=O)Oc1cc(C(F)(F)F)nnc1-c1ccc(F)c(F)c1 [Compound 1-71]
10: weed control effect, Amaranthus retroflexus (activity level) (Amaranthus retroflexus; Dose 3000 g/ha) | weed control effect, Veronica polita (activity level) (Veronica polita; Dose 3000 g/ha) | weed control effect, Chenopodiaceae (activity level) (Chenopodiaceae; Dose 3000 g/ha) | weed control effect, Rorippa indica (activity level) (Rorippa indica; Dose 3000 g/ha)

Oc1cc(C(F)(F)F)nnc1-c1cc(F)c(F)c(F)c1 [Compound 53]
10: weed control effect (activity level), Amaranthus retroflexus (Amaranthus retroflexus; dose 1000 g/ha) | weed control effect (activity level), Veronica polita (Veronica polita; dose 1000 g/ha) | weed control effect (activity level), Chenopodiaceae (Chenopodiaceae; dose 1000 g/ha) | weed control effect (activity level), Rorippa indica (Rorippa indica; dose 1000 g/ha)

CN1CCN(C(=O)Oc2cc(C(F)(F)F)nnc2-c2ccc(F)cc2)CC1 [Compound 1-64]
10: weed control effect, Amaranthus retroflexus (activity level) (Amaranthus retroflexus; Dose 3000 g/ha) | weed control effect, Veronica polita (activity level) (Veronica polita; Dose 3000 g/ha) | weed control effect, Chenopodiaceae (activity level) (Chenopodiaceae; Dose 3000 g/ha) | weed control effect, Rorippa indica (activity level) (Rorippa indica; Dose 3000 g/ha)

Cc1cc(F)ccc1-c1nnc(C(F)(F)F)cc1O [Compound 58]
10: weed control effect (activity level), Amaranthus retroflexus (Amaranthus retroflexus; dose 1000 g/ha) | weed control effect (activity level), Veronica polita (Veronica polita; dose 1000 g/ha) | weed control effect (activity level), Chenopodiaceae (Chenopodiaceae; dose 1000 g/ha) | weed control effect (activity level), Rorippa indica (Rorippa indica; dose 1000 g/ha)

O=C(Oc1cc(C(F)(F)F)nnc1-c1ccc(F)cc1)N1CCCCC1 [Compound 1-67]
10: weed control effect, Amaranthus retroflexus (activity level) (Amaranthus retroflexus; Dose 3000 g/ha) | weed control effect, Veronica polita (activity level) (Veronica polita; Dose 3000 g/ha) | weed control effect, Chenopodiaceae (activity level) (Chenopodiaceae; Dose 3000 g/ha) | weed control effect, Rorippa indica (activity level) (Rorippa indica; Dose 3000 g/ha)

Oc1cc(C(F)(F)F)nnc1-c1cncc(C2CC2)c1 [Compound 214]
10: weed control effect (activity level), Amaranthus retroflexus (Amaranthus retroflexus; dose 2000 g/ha) | weed control effect (activity level), Veronica polita (Veronica polita; dose 2000 g/ha) | weed control effect (activity level), Chenopodiaceae (Chenopodiaceae; dose 2000 g/ha) | weed control effect (activity level), Rorippa indica (Rorippa indica; dose 2000 g/ha)

CCCCCCCC(=O)Oc1cc(C(F)(F)F)nnc1-c1ccc(F)c(F)c1 [Compound 1-14]
10: weed control effect, Amaranthus retroflexus (activity level) (Amaranthus retroflexus; Dose 3000 g/ha) | weed control effect, Veronica polita (activity level) (Veronica polita; Dose 3000 g/ha) | weed control effect, Chenopodiaceae (activity level) (Chenopodiaceae; Dose 3000 g/ha) | weed control effect, Rorippa indica (activity level) (Rorippa indica; Dose 3000 g/ha)

Oc1cc(C(F)(F)F)nnc1-c1cc(Cl)nc(Cl)c1 [Compound 218]
10: weed control effect (activity level), Amaranthus retroflexus (Amaranthus retroflexus; dose 2000 g/ha) | weed control effect (activity level), Veronica polita (Veronica polita; dose 2000 g/ha) | weed control effect (activity level), Chenopodiaceae (Chenopodiaceae; dose 2000 g/ha) | weed control effect (activity level), Rorippa indica (Rorippa indica; dose 2000 g/ha)

CCCCC(=O)Oc1cc(C(F)(F)F)nnc1-c1ccc(Cl)c(Cl)c1 [Compound 1-7]
10: weed control effect, Amaranthus retroflexus (activity level) (Amaranthus retroflexus; Dose 3000 g/ha) | weed control effect, Veronica polita (activity level) (Veronica polita; Dose 3000 g/ha) | weed control effect, Chenopodiaceae (activity level) (Chenopodiaceae; Dose 3000 g/ha) | weed control effect, Rorippa indica (activity level) (Rorippa indica; Dose 3000 g/ha)

O=C(Oc1cc(C(F)(F)F)nnc1-c1ccc(F)cc1)c1ccc(Cl)cc1Cl [Compound 1-91]
10: weed control effect, Amaranthus retroflexus (activity level) (Amaranthus retroflexus; Dose 3000 g/ha) | weed control effect, Veronica polita (activity level) (Veronica polita; Dose 3000 g/ha) | weed control effect, Chenopodiaceae (activity level) (Chenopodiaceae; Dose 3000 g/ha) | weed control effect, Rorippa indica (activity level) (Rorippa indica; Dose 3000 g/ha)

Oc1cc(C(F)(F)F)nnc1-c1ccccc1Cl [Compound 30]
10: weed control effect (activity level), Amaranthus retroflexus (Amaranthus retroflexus; dose 1000 g/ha) | weed control effect (activity level), Veronica polita (Veronica polita; dose 1000 g/ha) | weed control effect (activity level), Chenopodiaceae (Chenopodiaceae; dose 1000 g/ha) | weed control effect (activity level), Rorippa indica (Rorippa indica; dose 1000 g/ha)

Cn1nc(C(F)F)cc1-c1nnc(C(F)(F)F)cc1O [Compound 794]
10: weed control effect (activity level), Amaranthus retroflexus (Amaranthus retroflexus; Dose 3000 g/ha) | weed control effect (activity level), Veronica polita (Veronica polita; Dose 3000 g/ha) | weed control effect (activity level), Chenopodiaceae (Chenopodiaceae; Dose 3000 g/ha) | weed control effect (activity level), Rorippa indica (Rorippa indica; Dose 3000 g/ha)

O=C(Oc1cc(C(F)(F)F)nnc1-c1ccc(F)cc1)c1cccc2ccsc12 [Compound 1-119]
10: weed control effect, Amaranthus retroflexus (activity level) (Amaranthus retroflexus; Dose 3000 g/ha) | weed control effect, Veronica polita (activity level) (Veronica polita; Dose 3000 g/ha) | weed control effect, Chenopodiaceae (activity level) (Chenopodiaceae; Dose 3000 g/ha) | weed control effect, Rorippa indica (activity level) (Rorippa indica; Dose 3000 g/ha)
